Experimental data: patent US5430148A, “Antiproliferative quinazolines” (Agouron Pharmaceuticals, Inc., priority 1992, dated 1995)
Like-named read-outs stand apart in the source and are kept apart here.

Assays:
[1] = target: E. coli TS (thymidylate synthase) (Escherichia coli, UniProt P0A884); assay: Inhibition constants against 5,10-methylenetetrahydrofolate for thymidylate synthase, E. coli enzyme (tritium release); format: biochemical
Description: (§1) Determination of Inhibition Constants Against 5,10-Methylenetetrahydrofolate for the Enzyme Thymidylate Synthase
(§2) Inhibition constants, Ki, slope and Ki, intercept [W. W. Cleland, Biochim. Biophys. […] The cofactor was present as the variable substrate under conditions of saturating radiolabelled 2'-deoxyuridine 5-monophosphate (dUMP). […] Assays of human TS also contained 1-5 μg/mL bovine serum albumin to stabilize the protein. Reactions were initiated by the addition of enzyme and were carried out for 5 minutes at 24° C., and then quenched by the addition of charcoal (15 mg in 0.1 mL H2 O). The quenched samples were centrifuged at 10,000 rpm for 12-15 min at […] to remove unreacted dUMP which had bound to the charcoal, and 0.1 mL of the supernatant was counted by liquid scintillation in the presence of 5 mL ecolume to determine the release of tritium label from the 5-position of the dUMP. […] Experimental results were analyzed by EZ-FIT, a nonlinear regression analysis program (Perrella Scientific, Springfield, Pa.) which was used to fit all data points simultaneously to a mixed noncompetitive inhibition scheme.

CCRF-CEM cells = assay: Inhibition of growth of tumor cells, CCRF-CEM human lymphoblastic leukemia (MTT); format: cell-based; details: for IC50: read-out: Cell Culture IC50, CCRF-CEM; for inhibition at 50 µM: read-out: growth inhibition, CCRF-CEM
Description: (§3) In Vitro Testing to Determine Inhibition of Growth of Tumor Cells
(§4) Growth was measured over 3 days (L1210) or 5 days (CCRF-CEM, GC3 /M TK^-) of continuous exposure to varying concentrations of each test compound, added 4 h. after initial cell plating, by the MTT-tetrazolium reduction assay of T. J. Mosmann [J. Immunol. Meth. […] Water insoluble derivatives were dissolved in DMSO and diluted to a final concentration of 0.5% solvent in cell cultures.

GC3/M TK- cells = assay: Inhibition of growth of tumor cells, thymidine kinase-deficient human colon adenocarcinoma GC3/M TK- (MTT); format: cell-based; details: for IC50: read-out: Cell Culture IC50, GC3-M (TK-)
Description: as §3, §4

[2] = system: L1210 murine leukemia cells; assay: Inhibition of growth of tumor cells, L1210 murine leukemia (MTT); format: cell-based; details: for IC50: read-out: Cell Culture IC50, L1210; for inhibition at 50 µM: read-out: growth inhibition, L1210
Description: as §3, §4

[3] = target: human TS (thymidylate synthase) (Homo sapiens, UniProt P04818); assay: Inhibition constants against 5,10-methylenetetrahydrofolate for thymidylate synthase, human enzyme (tritium release); format: biochemical; details: cofactor as variable substrate, pH 7.6, 24° C.
Chain of human TS (thymidylate synthase) (P04818 2-313 limits assumed): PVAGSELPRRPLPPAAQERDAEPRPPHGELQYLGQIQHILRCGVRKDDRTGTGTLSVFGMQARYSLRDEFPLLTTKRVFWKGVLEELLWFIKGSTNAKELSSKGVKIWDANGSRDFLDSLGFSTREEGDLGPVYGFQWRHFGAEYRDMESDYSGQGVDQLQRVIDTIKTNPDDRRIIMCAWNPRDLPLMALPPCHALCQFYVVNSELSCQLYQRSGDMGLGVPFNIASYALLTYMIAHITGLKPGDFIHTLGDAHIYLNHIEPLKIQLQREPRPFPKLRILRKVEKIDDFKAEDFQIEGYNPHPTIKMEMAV
Description: as §1, §2

[4] = Homo sapiens, CCRF-CEM, 120 h, 5 days continuous exposure, MTT
[5] = Homo sapiens, GC3/MTK-, 120 h, 5 days continuous exposure, MTT
[6] = Mus musculus, L1210, 72 h, 3 days continuous exposure, MTT
[7] = read-out: Ki Data, human thymidylate synthase
[8] = Ki Data, human thymidylate synthase
[9] = 5 days continuous exposure, MTT
[10] = 3 days continuous exposure, MTT
[11] = Homo sapiens, CCRF-CEM, 120 h, @ > 50 μM, 5 days
[12] = Mus musculus, L1210, 72 h, @ > 50 μM, 3 days

Chain of E. coli TS (thymidylate synthase) (P0A884 whole entry): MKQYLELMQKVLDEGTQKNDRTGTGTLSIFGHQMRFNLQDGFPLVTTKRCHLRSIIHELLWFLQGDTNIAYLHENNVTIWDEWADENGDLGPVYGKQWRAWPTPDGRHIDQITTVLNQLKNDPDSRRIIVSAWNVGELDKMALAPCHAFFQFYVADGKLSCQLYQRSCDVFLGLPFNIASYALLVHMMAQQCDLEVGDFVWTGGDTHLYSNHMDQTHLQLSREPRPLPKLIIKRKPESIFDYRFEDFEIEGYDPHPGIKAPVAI

Row | SMILES | Ki [1] | IC50 (CCRF-CEM cells; [4]) | IC50 (GC3/M TK- cells; [5]) | IC50 [2, 6] | Ki [3, 7] | Ki [3, 8] | other results
1 | Cc1nc(O)c2c(Oc3ccccc3)cccc2n1 [Compound 1A] | > 100 µM |  |  |  |  |  | 
2 | Cc1nc2cccc(Cn3cncc3-c3ccc([N+](=O)[O-])cc3)c2c(=O)[nH]1 [Compound 32A] | > 10 µM | 6 µM | > 10 µM | > 10 µM | > 10 µM |  | inhibition at 10 µM (GC3/M TK- cells; Homo sapiens, GC3/MTK-, 120 h, @ > 10 μM, 5 days): 30%
3 | Cc1cc(Sc2c(C)ccc3nc(C)[nH]c(=O)c23)ccn1 [Compound 12A, 3,4-Dihydro-2,6-dimethyl-4-oxo-5-[4-(2-picolinylthio)]-quinazoline] | 0.55 ± 0.05 µM | 4.2 µM | 5 µM | 4.2 µM |  | 0.07 ± 0.001 µM | 
4 | Cc1nc2ccc(C)c(Sc3ccnc(C(F)(F)F)c3)c2c(=O)[nH]1 [Compound 17A, 3,4-Dihydro-2,6-dimethyl-4-oxo-5-[4-(6-trifluoromethylpyridylthio)]-quinazoline] |  |  |  |  | 0.13 ± 0.03 µM |  | 
5 | Cc1nc2ccc(C)c(Sc3ccnnc3)c2c(=O)[nH]1 [Compound 29A] |  |  | > 12.5 µM |  | 0.12 ± 0.02 µM |  | 
6 | Cc1nc2ccc(C)c(Sc3ccc(S(=O)(=O)c4ccccc4)cc3)c2c(=O)[nH]1 [Compound 9A] |  | 2.1 µM | 4.5 µM | 1.8 µM |  |  | 
7 | Cc1nc2ccc(C)c(Sc3nnc(C)s3)c2c(=O)[nH]1 [Compound 11A] | 21 ± 13 µM | > 3.33 µM | > 3.33 µM | > 3.33 µM | 2 ± 0.4 µM |  | inhibition at 3.33 µM (CCRF-CEM cells; Homo sapiens, CCRF-CEM, 120 h, @ > 3.33 μM, 5 days): 17%; growth inhibition, GC3-M (TK-) (GC3/M TK- cells; @ > 3.33 μM, 5 days): none; growth inhibition, L1210 ([2]; @ > 3.33 μM, 3 days): none
8 | Cc1nc(O)c2c(Sc3ccccc3)cccc2n1 [Compound 2A] | > 10 µM |  |  |  |  |  | 
9 | Cc1ccc2nc(N)[nH]c(=O)c2c1Sc1ccnnc1 [Compound 30A] |  | 0.88 µM | 1.5 µM | 1.6 µM | 0.011 µM |  | 
10 | Cc1nc2ccc(C)c(Sc3cccnc3)c2c(=O)[nH]1 [Compound 21A] |  |  |  |  |  | 190 ± 25 µM | IC50 (CCRF-CEM cells; Homo sapiens, CCRF-CEM, 120 h): > 50 µM; inhibition at 50 µM (CCRF-CEM cells; Homo sapiens, CCRF-CEM, 120 h): 42%; growth inhibition, GC3-M (TK-) (GC3/M TK- cells; @ > 50 μM, 5 days): none; IC50 (GC3/M TK- cells; Homo sapiens, GC3/MTK-, 120 h): > 50 µM; IC50 ([2]; Mus musculus, L1210, 72 h): > 50 µM; inhibition at 50 µM ([2]; Mus musculus, L1210, 72 h): 28%
11 | Cc1ccc2nc(N)[nH]c(=O)c2c1Sc1ccncc1 [Compound 25A] |  |  |  |  |  |  | IC50 (CCRF-CEM cells; [9]): 1.1 µM; IC50 (GC3/M TK- cells; [9]): 1.7 µM; IC50 [2, 10]: 0.59 µM
12 | Cc1nc2ccc(C)c(Sc3ccc(C(=O)N[C@@H](CCC(=O)O)C(=O)O)cc3)c2c(=O)[nH]1 [Compound 27A, N-[4-((3,4-Dihydro-2,6-dimethyl-4-oxo-5-quinazolinyl)thio)benzoyl]-L-glutamic acid] |  | 0.99 µM | 4.1 µM | 1.05 µM |  | 0.00795 µM | 
13 | COc1cc(Sc2c(C)ccc3nc(C)[nH]c(=O)c23)ccn1 [Compound 16A, 3,4-Dihydro-2,6-dimethyl-4-oxo-5-[4-(6-methoxypyridylthio)]quinazoline] | 0.76 ± 0.12 µM |  | > 5 µM |  |  | 0.048 ± 0.006 µM | 
14 | COc1ccc2nc(C)[nH]c(=O)c2c1Sc1ccncc1 [Compound 13A, 3,4-Dihydro-6-methoxy-2-methyl-4-oxo-5-(4-pyridylthio)-quinazoline] |  | 26 µM | 32 µM | 21 µM |  |  | 
15 | Cc1nc2cccc(Sc3ccccn3)c2c(=O)[nH]1 [Compound 20A] | 311 ± 99 µM | > 50 µM | > 50 µM | > 50 µM |  | 61 ± 17 µM | inhibition at 50 µM (CCRF-CEM cells; [11]): 20%; growth inhibition, GC3-M (TK-) (GC3/M TK- cells; @ > 50 μM, 5 days): none; inhibition at 50 µM [2, 12]: 40%
16 | Cc1ccc2nc(N)[nH]c(=O)c2c1Sc1ccnc(C(F)(F)F)c1 [Compound 18A, 2-Amino-3,4-dihydro-6-methyl-4-oxo-5-[4-(6-trifluoromethylpyridylthio)]-quinazoline] |  | > 2 µM | > 2 µM | 1.8 µM |  |  | inhibition at 2 µM (CCRF-CEM cells; Homo sapiens, CCRF-CEM, 120 h, @ > 2.0 μM, 5 days): 33%; inhibition at 2 µM (GC3/M TK- cells; Homo sapiens, GC3/MTK-, 120 h, @ > 2.0 μM, 5 days): 33%
17 | Cc1ccc2nc(N)[nH]c(=O)c2c1Sc1ccncc1 [Compound 14A, 2-Amino-3,4-dihydro-6-methyl-4-oxo-5-(4-pyridylthio)-quinazoline] | 0.15 ± 0.03 µM | 0.81 µM | 1 µM | 1 µM |  |  | 
18 | Cc1nc2ccc(C)c(Sc3ccncc3)c2c(=O)[nH]1 [Compound 23A] |  |  |  |  |  | 0.13 ± 0.009 µM | IC50 (CCRF-CEM cells; [9]): 5.1 µM; IC50 (GC3/M TK- cells; [9]): 6.1 µM; IC50 [2, 10]: 3.5 µM
19 | Cc1nc2ccc(O)c(Sc3ccncc3)c2c(=O)[nH]1 [Compound 15A, 3,4-Dihydro-6-hydroxy-2-methyl-4-oxo-5-(4-pyridylthio)-quinazoline] |  | > 50 µM | > 50 µM | > 50 µM | 19 ± 11 µM |  | inhibition at 50 µM (CCRF-CEM cells; [11]): 40%; inhibition at 50 µM (GC3/M TK- cells; Homo sapiens, GC3/MTK-, 120 h, @ > 50 μM, 5 days): 4%; inhibition at 50 µM [2, 12]: 27%
20 | Cc1nc2ccc(C)c(Sc3ccc(C(=O)O)cc3)c2c(=O)[nH]1 [Compound 28A, 4-[(3,4-Dihydro-2,6-dimethyl-4-oxo-5-quinazolinyl)thio]-benzoic acid] |  | > 50 µM | > 50 µM | > 50 µM |  | 0.115 µM | growth inhibition, CCRF-CEM (CCRF-CEM cells; @ > 50 μM, 5 days): none; growth inhibition, GC3-M (TK-) (GC3/M TK- cells; @ > 50 μM, 5 days): none; inhibition at 50 µM [2, 12]: 27%
21 | Cc1nc2cccc(Cn3ccc4cc(Cl)ccc43)c2c(=O)[nH]1 [Compound 3A, 5-Chloro-N-[(3,4-dihydro-2-methyl-4-oxo-5-quinazolyl)methyl]indole] | > 3 µM | > 12.3 µM | > 12.7 µM |  | > 3 µM |  | inhibition at 12.3 µM (CCRF-CEM cells; Homo sapiens, CCRF-CEM, 120 h, > 12.3 μM, 5 days): 10%; inhibition at 12.7 µM (GC3/M TK- cells; Homo sapiens, GC3/MTK-, 120 h, > 12.7 μM, 5 days): 20%
22 | Cc1ccc2nc(N)[nH]c(=O)c2c1Sc1ccncc1 [Compound 24A] |  | 1.1 µM | 1.2 µM | 0.55 µM |  |  | 
23 | Cc1nc2ccc(C)c(Sc3ccnc(N(C)C)c3)c2c(=O)[nH]1 [Compound 26A, 3,4-Dihydro-2,6-dimethyl-4-oxo-5-[4-(6-dimethylaminopyridylthio)]-quinazoline] |  | 10.5 µM | 18 µM | 4.05 µM |  | 0.079 µM | 
